In PMC6154534, “New Benzimidazole-1,2,4-Triazole Hybrid Compounds: Synthesis, Anticandidal Activity and Cytotoxicity Evaluation” (Molecules : A Journal of Synthetic Chemistry and Natural …, 2017):
In brackets after ≈: the same amount, converted by molar mass.

How the values were obtained:
C. albicans (ATCC 24433) = assay: Anticandidal broth microdilution (EUCAST EDef 7.1), resazurin fluorometric readout; assay type: cell-based; conditions: Candida albicans, ATCC24433; ATCC 24433, RPMI pH 7, 24 h incubation
Experimental: (§1) Synthesized compounds (5a-5ad) were evaluated for anticandidal activity against C. albicans (ATCC 24433), C. krusei (ATCC 6258), C. parapsilosis (ATCC 22019) and C. [NT] 90030). MIC50 values were evaluated via fluorometric measurements, using resazurin solution [56, 57]. […] [NT] 90030). MIC readings were carried out twice for each chemical agent. The yeasts were maintained in RPMI after overnight incubation at 37 °C. The inocula of test microorganisms adjusted to match the turbidity of a MacFarland 0.5 standard tube as determined with a spectrophotometer and the final inoculum size was 0.5-2.5 × 10^5 cfu/mL for antifungal assay. Testing was carried out in RPMI at pH = 7 and the two-fold serial dilutions technique was applied. The last well on the microplates containing only inoculated broth was kept as controls and the last well with no growth of microorganism was recorded to represent the MIC50 expressed in μg/mL. For the antifungal assays, the compounds were dissolved in DMSO. […] The completed plates were incubated for 24 h. At the end of the incubation, resazurin (20 μg/mL) was added into each well to control whether the growth in wells. Then, plates were allowed to incubate for 2 h. MIC50 values were determined using a microplate reader at […].

C. glabrata (ATCC 90030) = assay: as above; assay type: cell-based; conditions: Nakaseomyces glabratus, ATCC90030; ATCC 90030, RPMI pH 7, 24 h incubation
Experimental: as §1

C. krusei (ATCC 6258) = assay: as above; assay type: cell-based; conditions: Pichia kudriavzevii, ATCC6258; ATCC 6258, RPMI pH 7, 24 h incubation
Experimental: as §1

[1] = system: C. parapsilosis (ATCC 22019); assay: as above; assay type: cell-based; conditions: Lodderomyces parapsilosis, ATCC22019; ATCC 22019, RPMI pH 7, 24 h incubation; read-out: MIC50 C. parapsilopsis
Experimental: as §1

Candida species = assay: Anticandidal broth microdilution, results summarised over all strains; assay type: cell-based; conditions: summary over all four Candida strains; for MIC50: Candida, read-out: MIC50 against Candida species
Experimental: as §1

Compound | MIC50 (C. albicans (ATCC 24433)) [µg/mL] | MIC50 (C. glabrata (ATCC 90030)) [µg/mL] | MIC50 (C. krusei (ATCC 6258)) [µg/mL] | MIC50 [1] [µg/mL] | melting point [°C] | MIC50 (Candida species) [µg/mL] | anticandidal activity against Candida strains (in words) (Candida species)
Cn1c(SCC(=O)c2ccc(Cl)cc2)nnc1-c1ccc(-c2nc3ccc(F)cc3[nH]2)cc1 [Compound 5v, 1-(4-Chlorophenyl)-2-((5-(4-(6-fluoro-1H-benzimidazol-2-yl)phenyl)-4-methyl-4H-1,2,4-triazol-3-yl)thio)ethan-1-one] | 12.5 (≈ 26.2 µM) | 6.25 (≈ 13.1 µM) | 12.5 (≈ 26.2 µM) | 12.5 (≈ 26.2 µM) | 252.9 | 1.56 to 3.12 (≈ 3.26 to 6.53 µM) | did not show strong activity
Cn1c(SCC(=O)c2ccc(Cl)cc2)nnc1-c1ccc(-c2nc3ccccc3[nH]2)cc1 [Compound 5b, 2-((5-(4-(1H-Benzimidazol-2-yl)phenyl)-4-methyl-4H-1,2,4-triazol-3-yl)thio)-1-(4-chlorophenyl)ethan-1-one] | 25 (≈ 54.4 µM) | 50 (≈ 109 µM) | 50 (≈ 109 µM) | 50 (≈ 109 µM) | 280.6 |  | 
Cn1c(SCC(=O)c2ccc(Cl)cc2Cl)nnc1-c1ccc(-c2nc3ccc(Cl)cc3[nH]2)cc1 [Compound 5n, 2-((5-(4-(6-Chloro-1H-Benzimidazol-2-yl)phenyl)-4-methyl-4H-1,2,4-triazol-3-yl)thio)-1-(2,4-dichlorophenyl)ethan-1-one] | 1.56 (≈ 2.95 µM) | 3.12 (≈ 5.9 µM) | 1.56 (≈ 2.95 µM) | 3.12 (≈ 5.9 µM) | 274.2 | 1.56 to 3.12 (≈ 2.95 to 5.9 µM) | 
CC(=O)N1CCN(c2ccc(OCC3COC(Cn4ccnc4)(c4ccc(Cl)cc4Cl)O3)cc2)CC1 (stereo not shown) [Ketoconazole, reference compound] | 0.78 (≈ 1.47 µM) | 1.56 (≈ 2.94 µM) | 1.56 (≈ 2.94 µM) | 1.56 (≈ 2.94 µM) |  |  | 
Cn1c(SCC(=O)c2ccc(F)cc2F)nnc1-c1ccc(-c2nc3ccccc3[nH]2)cc1 [Compound 5e, 2-((5-(4-(1H-Benzimidazol-2-yl)phenyl)-4-methyl-4H-1,2,4-triazol-3-yl)thio)-1-(2,4-difluorophenyl)ethan-1-one] | 12.5 (≈ 27.1 µM) | 25 (≈ 54.2 µM) | 25 (≈ 54.2 µM) | 25 (≈ 54.2 µM) | 256.2 |  | 
Cn1c(SCC(=O)c2ccc(Cl)cc2Cl)nnc1-c1ccc(-c2nc3ccc(F)cc3[nH]2)cc1 [Compound 5x, 1-(2,4-Dichlorophenyl)-2-((5-(4-(6-fluoro-1H-benzimidazol-2-yl)phenyl)-4-methyl-4H-1,2,4-triazol-3-yl)thio)ethan-1-one] | 3.12 (≈ 6.09 µM) | 1.56 (≈ 3.04 µM) | 3.12 (≈ 6.09 µM) | 3.12 (≈ 6.09 µM) | 228.5 |  | 
OC(Cn1cncn1)(Cn1cncn1)c1ccc(F)cc1F [Fluconazole, reference compound] | 0.78 (≈ 2.55 µM) | 1.56 (≈ 5.09 µM) | 1.56 (≈ 5.09 µM) | 0.78 (≈ 2.55 µM) |  |  | 
Cn1c(SCC(=O)c2ccccc2)nnc1-c1ccc(-c2nc3ccc(Cl)cc3[nH]2)cc1 [Compound 5k, 2-((5-(4-(6-Chloro-1H-benzimidazol-2-yl)phenyl)-4-methyl-4H-1,2,4-triazol-3-yl)thio)-1-phenylethan-1-one] | 12.5 (≈ 27.2 µM) | 25 (≈ 54.4 µM) | 25 (≈ 54.4 µM) | 12.5 (≈ 27.2 µM) | 260 |  | 
CCn1c(SCC(=O)c2ccc(Cl)cc2Cl)nnc1-c1ccc(-c2nc3ccc(Cl)cc3[nH]2)cc1 [Compound 5s, 2-((5-(4-(6-Chloro-1H-benzimidazol-2-yl)phenyl)-4-ethyl-4H-1,2,4-triazol-3-yl)thio)-1-(2,4-dichlorophenyl)ethan-1-one] | 1.56 (≈ 2.87 µM) | 3.12 (≈ 5.75 µM) | 3.12 (≈ 5.75 µM) | 1.56 (≈ 2.87 µM) | 192 | 1.56 to 3.12 (≈ 2.87 to 5.75 µM) | 
CCn1c(SCC(=O)c2ccc(Cl)cc2)nnc1-c1ccc(-c2nc3ccc(Cl)cc3[nH]2)cc1 [Compound 5q, 2-((5-(4-(6-Chloro-1H-benzimidazol-2-yl)phenyl)-4-ethyl-4H-1,2,4-triazol-3-yl)thio)-1-(4-chlorophenyl)ethan-1-one] | 6.25 (≈ 12.3 µM) | 12.5 (≈ 24.6 µM) | 12.5 (≈ 24.6 µM) | 12.5 (≈ 24.6 µM) | 252.2 |  | did not show strong activity
Cn1c(SCC(=O)c2ccc(Cl)cc2Cl)nnc1-c1ccc(-c2nc3ccccc3[nH]2)cc1 [Compound 5d, 2-((5-(4-(1H-Benzimidazol-2-yl)phenyl)-4-methyl-4H-1,2,4-triazol-3-yl)thio)-1-(2,4-dichlorophenyl)ethan-1-one] | 25 (≈ 50.6 µM) | 50 (≈ 101 µM) | 50 (≈ 101 µM) | 25 (≈ 50.6 µM) | 234.7 |  | 
Cn1c(SCC(=O)c2ccc(F)cc2)nnc1-c1ccc(-c2nc3ccccc3[nH]2)cc1 [Compound 5c, 2-((5-(4-(1H-Benzimidazol-2-yl)phenyl)-4-methyl-4H-1,2,4-triazol-3-yl)thio)-1-(4-fluorophenyl)ethan-1-one] | 12.5 (≈ 28.2 µM) | 25 (≈ 56.4 µM) | 25 (≈ 56.4 µM) | 12.5 (≈ 28.2 µM) | 259.8 |  | 
Cn1c(SCC(=O)c2ccc(Cl)cc2)nnc1-c1ccc(-c2nc3ccc(Cl)cc3[nH]2)cc1 [Compound 5l, 2-((5-(4-(6-Chloro-1H-benzimidazol-2-yl)phenyl)-4-methyl-4H-1,2,4-triazol-3-yl)thio)-1-(4-chlorophenyl)ethan-1-one] | 6.25 (≈ 12.6 µM) | 12.5 (≈ 25.3 µM) | 6.25 (≈ 12.6 µM) | 12.5 (≈ 25.3 µM) | 236.9 |  | 

Now from value to compound, other results behind:

MIC50 (C. albicans (ATCC 24433)) [µg/mL] | MIC50 (C. glabrata (ATCC 90030)) [µg/mL] | MIC50 (C. krusei (ATCC 6258)) [µg/mL] | MIC50 [1] [µg/mL] | melting point [°C] | MIC50 (Candida species) [µg/mL] | Compound | anticandidal activity against Candida strains (in words) (Candida species)
25 (≈ 52.7 µM) | 50 (≈ 105 µM) | 25 (≈ 52.7 µM) | 50 (≈ 105 µM) | 242.6 |  | CCn1c(SCC(=O)c2ccc(Cl)cc2)nnc1-c1ccc(-c2nc3ccccc3[nH]2)cc1 [Compound 5g, 2-((5-(4-(1H-Benzimidazol-2-yl)phenyl)-4-ethyl-4H-1,2,4-triazol-3-yl)thio)-1-(4-chlorophenyl)ethan-1-one] | 
12.5 (≈ 27.3 µM) | 25 (≈ 54.6 µM) | 50 (≈ 109 µM) | 50 (≈ 109 µM) | 253.6 |  | CCn1c(SCC(=O)c2ccccc2)nnc1-c1ccc(-c2nc3ccc(F)cc3[nH]2)cc1 [Compound 5z, 2-((4-Ethyl-5-(4-(6-fluoro-1H-benzimidazol-2-yl)phenyl)-4H-1,2,4-triazol-3-yl)thio)-1-phenylethan-1-one] | 
12.5 (≈ 27.3 µM) | 25 (≈ 54.6 µM) | 12.5 (≈ 27.3 µM) | 25 (≈ 54.6 µM) | 231.3 |  | CCn1c(SCC(=O)c2ccc(F)cc2)nnc1-c1ccc(-c2nc3ccccc3[nH]2)cc1 [Compound 5h, 2-((5-(4-(1H-Benzimidazol-2-yl)phenyl)-4-ethyl-4H-1,2,4-triazol-3-yl)thio)-1-(4-fluorophenyl)ethan-1-one] | 
25 (≈ 49.2 µM) | 50 (≈ 98.3 µM) | 50 (≈ 98.3 µM) | 50 (≈ 98.3 µM) | 221.7 |  | CCn1c(SCC(=O)c2ccc(Cl)cc2Cl)nnc1-c1ccc(-c2nc3ccccc3[nH]2)cc1 [Compound 5i, 2-((5-(4-(1H-Benzimidazol-2-yl)phenyl)-4-ethyl-4H-1,2,4-triazol-3-yl)thio)-1-(2,4-dichlorophenyl)ethan-1-one] | 
12.5 (≈ 28.2 µM) | 25 (≈ 56.4 µM) | 50 (≈ 113 µM) | 50 (≈ 113 µM) | 277.1 |  | Cn1c(SCC(=O)c2ccccc2)nnc1-c1ccc(-c2nc3ccc(F)cc3[nH]2)cc1 [Compound 5u, 2-((5-(4-(6-Fluoro-1H-benzimidazol-2-yl)phenyl)-4-methyl-4H-1,2,4-triazol-3-yl)thio)-1-phenylethan-1-one] | did not show strong activity
100 (≈ 235 µM) | 100 (≈ 235 µM) | 100 (≈ 235 µM) | 100 (≈ 235 µM) | 269.5 |  | Cn1c(SCC(=O)c2ccccc2)nnc1-c1ccc(-c2nc3ccccc3[nH]2)cc1 [Compound 5a, 2-((5-(4-(1H-Benzimidazol-2-yl)phenyl)-4-methyl-4H-1,2,4-triazol-3-yl)thio)-1-phenylethan-1-one] | 
12.5 (≈ 26.3 µM) | 25 (≈ 52.6 µM) | 12.5 (≈ 26.3 µM) | 25 (≈ 52.6 µM) | 238.2 |  | CCn1c(SCC(=O)c2ccc(F)cc2F)nnc1-c1ccc(-c2nc3ccccc3[nH]2)cc1 [Compound 5j, 2-((5-(4-(1H-Benzimidazol-2-yl)phenyl)-4-ethyl-4H-1,2,4-triazol-3-yl)thio)-1-(2,4-difluorophenyl)ethan-1-one] | 
100 (≈ 228 µM) | 100 (≈ 228 µM) | 100 (≈ 228 µM) | 100 (≈ 228 µM) | 220.9 |  | CCn1c(SCC(=O)c2ccccc2)nnc1-c1ccc(-c2nc3ccccc3[nH]2)cc1 [Compound 5f, 2-((5-(4-(1H-Benzimidazol-2-yl)phenyl)-4-ethyl-4H-1,2,4-triazol-3-yl)thio)-1-phenylethan-1-one] | 
